Assays:
[1] = target: T1, human calcitonin receptor (CTR) (Homo sapiens, UniProt P30988); assay: Calcitonin Receptor (CTR) cAMP Assay; type: cell-based; details: COS7-human CTR Clone #2 stable cell line, cAMP dynamic 2 kit, 30 min; read-out: Calcitonin Receptor cAMP Stimulation Activity: EC50
T1 construct: expressed in transfected cells; host or cells: COS-7 (COS7-human CTR Clone #2)
T1 sequence (P30988 25-474): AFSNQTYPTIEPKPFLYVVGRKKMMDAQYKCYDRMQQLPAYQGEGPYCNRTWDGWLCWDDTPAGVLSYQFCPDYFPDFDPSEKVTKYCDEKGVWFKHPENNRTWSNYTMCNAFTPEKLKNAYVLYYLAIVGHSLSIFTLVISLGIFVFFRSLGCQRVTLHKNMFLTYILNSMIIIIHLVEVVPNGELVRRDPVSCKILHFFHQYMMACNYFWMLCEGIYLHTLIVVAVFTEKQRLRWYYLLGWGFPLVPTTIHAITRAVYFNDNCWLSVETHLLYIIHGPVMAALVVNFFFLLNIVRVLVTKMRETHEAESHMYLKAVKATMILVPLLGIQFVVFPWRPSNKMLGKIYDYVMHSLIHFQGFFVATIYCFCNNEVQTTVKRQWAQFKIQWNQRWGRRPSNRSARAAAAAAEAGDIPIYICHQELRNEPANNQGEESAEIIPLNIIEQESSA
Protocol: (§1) After incubation, the cAMP assay signal was generated using cAMP dynamic 2 kit (Revvity, Cat #62AM4PEC). 10 μL cAMP-d2 working solution was added to each well, followed by 10 μL Anti-cAMP antibody-cryptate working solution which was added to each well using CERTUS FLEX LIQUID […]. The samples were then incubated at room temperature for 1 hour protected from light. the fluorescence was read at 665 and 615 nm with Reader PerkinElmer EnVision 2105. % Activity=100−(mean RLU of test sample−mean RLU of positive control)/(mean RLU of vehicle control−mean RLU of positive control)×100 Calcitonin Receptor (CTR) cAMP Assay
The calcitonin receptor (CTR) belongs to the subfamily of GPCRs known as the secretin or ‘B’ family of GPCRs. Like other class B1 GPCRs, the CT receptor family is canonically coupled to Gs-mediated cAMP production, and measurement of cAMP accumulation has been the primary assay used to determine peptide selectivity and potency.
(§2) To optimize functional activity directed toward Gαs coupling, COS-7 cells were stably transfected with human calcitonin receptor (CTR) to create COS7-human CTR Clone #2 stable cell line. 100×concentration of compound working solutions were prepared with 4-fold serial dilution in 384-well Echo LDV plate (Labcyte, Cat #LP-0200-BC). 200 nL/well 100×concentration of compound working solutions were moved to 384-well white microplate (Perkin Elmer, Cat #6007680) using Labcyte ECHO550. 1×10^5 cells/mL COS7-human CTR Clone #2 cell suspensions prepared with assay buffer [HBSS containing 20 mM HEPES (Gibco, Cat #15630-080), 0.5 mM IBMX (Sigma, Cat #15879) and 0.1% Casein (Sigma, Cat #C4765)], 20 μL cell suspensions were added to each well of previous generated assay plate which already contains 200 nL compound at 100×concentration using ThermoFisher Multidrop Combi (2000 cells/well). Seal the plate and incubate at 37° C. with 5% CO2 for 30 min.
as §1, with “control)×100” for “control)×100 Calcitonin Receptor (CTR) cAMP Assay”

[2] = target: T2, COS-7/AMY3 (human calcitonin receptor (CTR) and RAMP3) (Homo sapiens, UniProt O60896+P30988); assay: Amylin Receptor cAMP Assay II; type: cell-based; details: values marked **: Amylin Receptor cAMP Assay II; COS-7/AMY3 cells, cAMP dynamic 2 kit, 30 min; read-out: Amylin Receptor cAMP Stimulation Activity: EC50
T2 construct: expressed in transfected cells; host or cells: COS-7
T2 sequence (O60896 24-148, one chain of several): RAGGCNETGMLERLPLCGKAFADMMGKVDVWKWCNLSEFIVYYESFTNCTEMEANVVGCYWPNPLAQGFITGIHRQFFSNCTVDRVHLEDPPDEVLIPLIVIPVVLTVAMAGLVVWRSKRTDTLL
Excerpt: AMYRs are heterodimers of the class B calcitonin (CT) G-protein-coupled receptor (CTR) and receptor activity-modifying proteins (RAMPs). All three RAMPs can interact with the CTR and form AMY1, AMY2, AMY3 with RAMP1, RAMP2 and RAMP3, respectively. Like other class B1 GPCRs, the CT receptor family is canonically coupled to Gs-mediated cAMP production, and measurement of cAMP accumulation has been the primary assay used to determine peptide selectivity and potency.
as §2, with “and RAMP3, simultaneously.” for “to create COS7-human CTR Clone #2 stable cell line.”, “COS-7/AMY3” for “COS7-human CTR Clone #2”
as §1

## C[C@@H](Nc1nccc2cc(-c3c4c(nc(CCc5ccc(F)cc5)c3-c3noc(=O)[nH]3)[C@@H]3CCCN3C4=O)sc12)c1ccc(F)c(F)c1 [Compound 140]
[1]
  EC50: 2.13 nM
[2]
  EC50: 19.1 nM

## C[C@H](Nc1nccc2cc(-c3c4c(nc(CCc5ccc(F)cc5)c3-c3noc(=O)[nH]3)[C@@H]3CCCN3C4=O)sc12)c1ccc(F)c(F)c1 [Compound 141]
[1]
  EC50: 88.8 nM
[2]
  EC50: 711 nM

## O=C1c2c(nc(CCc3ccc(F)cc3)c(-c3noc(=O)[nH]3)c2-c2cc3ccnc(NCc4ccc(F)c(Cl)c4)c3s2)[C@@H]2CCCN12 [Compound 146]
[1]
  EC50: 3.18 nM
[2]
  EC50: 54.1 nM

## O=C1c2c(nc(CCc3ccc(F)cc3)c(-c3noc(=O)[nH]3)c2-c2cc3ccnc(NCc4ccc(Cl)c(F)c4)c3s2)[C@@H]2CCCN12 [Compound 147]
[1]
  EC50: 2.8 nM
[2]
  EC50: 51.9 nM

## O=C1c2c(nc(CCc3ccc(F)cc3)c(-c3noc(=O)[nH]3)c2-c2cc3ccnc(NCc4ccc5c(c4)CCC5)c3s2)[C@@H]2CCCN12 [Compound 148]
[1]
  EC50: 18.7 nM
[2]
  EC50: 288 nM

## COc1cccc2c1CC[C@H]2Nc1nccc2cc(-c3c4c(nc(CCc5ccc(F)cc5)c3-c3cc(=O)[nH]o3)[C@@H]3CCCN3C4=O)sc12 [Compound 150, 5-((S)-2-(4-fluorophenethyl)-4-(7-(((R)-4-methoxy-2,3-dihydro-1H-inden-1-yl)amino)thieno[2,3-c]pyridin-2-yl)-5-oxo-7,8,9,9a-tetrahydro-5H-pyrido[2,3-a]pyrrolizin-3-yl)isoxazol-3(2H)-one]
[1]
  EC50: 1.06 nM
[2]
  EC50: 25.4 nM

## COc1cccc2c1CC[C@H]2Nc1nccc2cc(-c3c4c(nc(CCc5cccc(C6CCOC6)c5)c3-c3noc(=O)[nH]3)[C@@H]3CCCN3C4=O)sc12 (stereo partly drawn) [Compound 151, 3-((9aS)-4-(7-(((R)-4-methoxy-2,3-dihydro-1H-inden-1-yl)amino)thieno[2,3-c]pyridin-2-yl)-5-oxo-2-(3-(tetrahydrofuran-3-yl)phenethyl)-7,8,9,9a-tetrahydro-5H-pyrido[2,3-a]pyrrolizin-3-yl)-1,2,4-oxadiazol-5(4H)-one]
[1]
  EC50: 22 nM
[2]
  EC50: 159 nM

## O=C1c2c(nc(CCc3ccc(F)cc3)c(-c3noc(=O)[nH]3)c2-c2ccc3nn(C4CCc5ccccc54)cc3c2)[C@@H]2CCCN12 (stereo partly shown) [Compound 152]
[1]
  EC50: 513 nM
[2]
  EC50: 5100 nM

## O=C1c2c(nc(CCc3ccc(F)cc3)c(-c3noc(=O)[nH]3)c2-c2ccc3c(ccn3Cc3ccc(F)c(F)c3)c2)[C@@H]2CCCN12 [Compound 153]
[1]
  EC50: 2.58 nM
[2]
  EC50: 16.6 nM

## CC(C)C1CS(=O)(=O)c2c1nc(CCC1CCOCC1)c(-c1cc(=O)[nH]o1)c2-c1cc2ccnc(N[C@@H]3CCc4ncccc43)c2s1 (stereo partly drawn) [Compound 154, 5-(7-(7-(((R)-6,7-dihydro-5H-cyclopenta[b]pyridin-5-yl)amino)thieno[2,3-c]pyridin-2-yl)-3-isopropyl-1,1-dioxido-5-(2-(tetrahydro-2H-pyran-4-yl)ethyl)-2,3-dihydrothieno[3,2-b]pyridin-6-yl)isoxazol-3(2H)-one]
[1]
  EC50: 52.8 nM
[2]
  EC50: 648 nM

## COc1cccc2c1CC[C@H]2Nc1nccc2cc(-c3c(-c4n[nH]c(=O)o4)c(CCc4ccc(F)cc4)nc4c3c(=O)n3n4CCC3)sc12 [Compound 155]
[1]
  EC50: 1.21 nM
[2]
  EC50: 33.5 nM

## COc1cccc2c1CC[C@H]2Nc1nccc2cc(-c3c(-c4n[nH]c(=O)o4)c(CCc4ccc(F)cc4)nc4c3S(=O)(=O)CC4C(C)C)sc12 (stereo partly drawn) [Compound 156, 5-(5-(4-fluorophenethyl)-3-isopropyl-7-(7-(((R)-4-methoxy-2,3-dihydro-1H-inden-1-yl)amino)thieno[2,3-c]pyridin-2-yl)-1,1-dioxido-2,3-dihydrothieno[3,2-b]pyridin-6-yl)-1,3,4-oxadiazol-2(3H)-one]
[1]
  EC50: 2.48 nM
[2]
  EC50: 55.4 nM

## CC(C)C1CS(=O)(=O)c2c1nc(CCC1CCOCC1)c(-c1n[nH]c(=O)o1)c2-c1cnc2c(ccn2Cc2ccc(C#N)c(F)c2)c1 (stereo not shown) [Compound 157, 2-fluoro-4-((5-(3-isopropyl-1,1-dioxido-6-(5-oxo-4,5-dihydro-1,3,4-oxadiazol-2-yl)-5-(2-(tetrahydro-2H-pyran-4-yl)ethyl)-2,3-dihydrothieno[3,2-b]pyridin-7-yl)-1H-pyrrolo[2,3-b]pyridin-1-yl)methyl)benzonitrile]
[1]
  EC50: 7.42 nM
[2]
  EC50: 115 nM

## N#Cc1ccc(Cn2ccc3cc(-c4c(-c5n[nH]c(=O)o5)c(CCc5ccc(F)cc5)nc5c4c(=O)n4n5CCC4)ccc32)cc1F [Compound 158, 2-fluoro-4-((5-(2-(4-fluorophenethyl)-5-oxo-3-(5-oxo-4,5-dihydro-1,3,4-oxadiazol-2-yl)-8,9-dihydro-5H,7H-pyrazolo[1′,2′:1,2]pyrazolo[3,4-b]pyridin-4-yl)-1H-indol-1-yl)methyl)benzonitrile]
[1]
  EC50: 1.19 nM
[2]
  EC50: 12.8 nM

## CC(c1ccc(C#N)c(F)c1)n1ccc2cc(-c3c(-c4n[nH]c(=O)o4)c(CCc4ccc(F)cc4)nc4c3c(=O)n3n4CCC3)ccc21 (stereo not shown) [Compound 159, 2-fluoro-4-[1-[5-[11-[2-(4-fluorophenyl)ethyl]-7-oxo-10-(2-oxo-3H-1,3,4-oxadiazol-5-yl)-2,6,12-triazatricyclo[6.4.0.02,6]dodeca-1(8),9,11-trien-9-yl]indol-1-yl]ethyl]benzonitrile]
[1]
  EC50: 1.17 nM
[2]
  EC50: 28.7 nM

## CC(c1ccc(C#N)cn1)n1c(=O)oc2cc(-c3c4c(nc(CCc5ccc(F)cc5)c3-c3n[nH]c(=O)o3)[C@@H]3CCCN3C4=O)ccc21 (stereo partly drawn) [Compound 160, 6-[1-[6-[(9aS)-2-[2-(4-fluorophenyl)ethyl]-5-oxo-3-(2-oxo-3H-1,3,4-oxadiazol-5-yl)-7,8,9,9a-tetrahydropyrido[2,3-a]pyrrolizin-4-yl]-2-oxo-1,3-benzoxazol-3-yl]ethyl]pyridine-3-carbonitrile]
[1]
  EC50: 0.724 nM
[2]
  EC50: 12.2 nM

## N#Cc1ccc(Cn2ccc3cc(-c4c(-c5n[nH]c(=O)o5)c(CCc5ccc(F)cc5)nc5c4c(=O)n4n5CCC4)cnc32)cc1F [Compound 161]
[1]
  EC50: 1.82 nM
[2]
  EC50: 35.8 nM
